Laboratory results from patent US20250163051A1, “PYRIMIDO AROMATIC RING COMPOUND AND USE THEREOF IN DRUG” (SUNSHINE LAKE PHARMA CO., LTD., priority 2022, published 2025).

Key:
hTLR8 = target: T1, hTLR8 (Homo sapiens, UniProt Q9NR97); test: Agonistic activity on human TLR8 in HEK-Blue hTLR8 cells (QUANTI-Blue); format: cell-based; conditions: 24 h incubation, OD650, read-out: hTLR 8 EC50
T1 construct: expressed in transfected cells; host or cells: HEK-Blue hTLR8 cells
T1 sequence (Q9NR97 27-1041): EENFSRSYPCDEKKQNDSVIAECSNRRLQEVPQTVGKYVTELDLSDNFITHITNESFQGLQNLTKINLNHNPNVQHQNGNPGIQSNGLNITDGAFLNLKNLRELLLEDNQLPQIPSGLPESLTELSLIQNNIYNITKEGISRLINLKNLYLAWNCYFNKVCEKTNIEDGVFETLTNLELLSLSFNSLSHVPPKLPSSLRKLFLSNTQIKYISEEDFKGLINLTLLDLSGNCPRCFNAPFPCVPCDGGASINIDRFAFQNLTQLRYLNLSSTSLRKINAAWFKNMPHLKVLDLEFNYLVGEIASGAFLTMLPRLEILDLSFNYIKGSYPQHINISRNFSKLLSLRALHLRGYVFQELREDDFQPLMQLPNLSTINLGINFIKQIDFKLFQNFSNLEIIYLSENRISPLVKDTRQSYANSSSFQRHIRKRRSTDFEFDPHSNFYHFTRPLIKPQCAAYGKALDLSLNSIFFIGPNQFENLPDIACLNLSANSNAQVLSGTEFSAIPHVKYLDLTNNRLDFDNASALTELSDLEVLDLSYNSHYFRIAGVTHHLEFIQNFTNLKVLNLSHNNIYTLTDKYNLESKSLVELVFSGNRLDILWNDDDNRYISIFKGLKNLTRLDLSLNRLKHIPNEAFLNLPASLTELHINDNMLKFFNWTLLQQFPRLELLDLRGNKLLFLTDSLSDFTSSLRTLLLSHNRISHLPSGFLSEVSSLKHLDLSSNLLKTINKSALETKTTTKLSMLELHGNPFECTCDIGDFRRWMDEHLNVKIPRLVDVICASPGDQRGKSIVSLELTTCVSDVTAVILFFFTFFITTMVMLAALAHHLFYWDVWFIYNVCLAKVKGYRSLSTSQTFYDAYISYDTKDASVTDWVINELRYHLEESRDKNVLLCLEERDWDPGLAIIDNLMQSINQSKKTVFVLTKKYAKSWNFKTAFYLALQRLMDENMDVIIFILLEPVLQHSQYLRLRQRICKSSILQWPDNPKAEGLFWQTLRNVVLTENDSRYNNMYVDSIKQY
Procedure: (§1) Purpose: HEK-Blue™ hTLR7 and HEK-Blue™ hTLR8 cells were used to detect the agonist and cytotoxic activities of compounds against hTLR7 and hTLR8.
(§2) The experimental steps were as shown below: • 1) Preparation of compound: The compound was prepared into a 20 mM stock solution with DMSO, and then the stock solution was diluted 3-fold in a gradient and added to a 96-well plate, for a total of 10 concentrations, with duplicate wells for each concentration. For negative control wells, 0.5 μL DMSO was added to each well. The final DMSO concentration was 0.5%. • 2) HEK-Blue™ hTLR7 or HEK-Blue™ hTLR8 cells were suspended in culture medium and then seeded into 96-well plates containing compounds at a cell count of 50,000 per well. The compounds and cells were incubated for 24 h at 37° C., 5% Co2. • 3) QUANTI-Blue was used for the detection solution: to a mixture of 1 mL of QB reagent and 1 mL of QB buffer was added 98 mL of sterile water, the mixture was mixed and dissolved, and then placed at room temperature for 10 min. • 4) Activity test of the compound: 20 μL of the culture supernatant in step 2) was added to each well of a 96-well plate containing 180 μL of QUANTI-Blue detection solution. After incubation at 37° C. for 1 h, the absorbance at 650 nm (OD650) was detected using a multifunctional microplate reader Flextation III. • 5) Detection of cell activity: The chemiluminescent signal (RLU) was detected using the multifunctional microplate reader Flextation III according to the instructions of Celltiter-Glo. • 6) Data analysis
(§3) Activity of compounds: OD650 values were analyzed using GraphPad Prism software, and the compound dose-effect curves were fitted to calculate the EC50 values of the compounds.

hTLR7 = target: T2, hTLR7 (Homo sapiens, UniProt Q9NYK1); test: Agonistic activity on human TLR7 in HEK-Blue hTLR7 cells (QUANTI-Blue); format: cell-based; conditions: 24 h incubation, OD650, read-out: hTLR 7 EC50
T2 construct: expressed in transfected cells; host or cells: HEK-Blue hTLR7 cells
T2 sequence (Q9NYK1 27-1049): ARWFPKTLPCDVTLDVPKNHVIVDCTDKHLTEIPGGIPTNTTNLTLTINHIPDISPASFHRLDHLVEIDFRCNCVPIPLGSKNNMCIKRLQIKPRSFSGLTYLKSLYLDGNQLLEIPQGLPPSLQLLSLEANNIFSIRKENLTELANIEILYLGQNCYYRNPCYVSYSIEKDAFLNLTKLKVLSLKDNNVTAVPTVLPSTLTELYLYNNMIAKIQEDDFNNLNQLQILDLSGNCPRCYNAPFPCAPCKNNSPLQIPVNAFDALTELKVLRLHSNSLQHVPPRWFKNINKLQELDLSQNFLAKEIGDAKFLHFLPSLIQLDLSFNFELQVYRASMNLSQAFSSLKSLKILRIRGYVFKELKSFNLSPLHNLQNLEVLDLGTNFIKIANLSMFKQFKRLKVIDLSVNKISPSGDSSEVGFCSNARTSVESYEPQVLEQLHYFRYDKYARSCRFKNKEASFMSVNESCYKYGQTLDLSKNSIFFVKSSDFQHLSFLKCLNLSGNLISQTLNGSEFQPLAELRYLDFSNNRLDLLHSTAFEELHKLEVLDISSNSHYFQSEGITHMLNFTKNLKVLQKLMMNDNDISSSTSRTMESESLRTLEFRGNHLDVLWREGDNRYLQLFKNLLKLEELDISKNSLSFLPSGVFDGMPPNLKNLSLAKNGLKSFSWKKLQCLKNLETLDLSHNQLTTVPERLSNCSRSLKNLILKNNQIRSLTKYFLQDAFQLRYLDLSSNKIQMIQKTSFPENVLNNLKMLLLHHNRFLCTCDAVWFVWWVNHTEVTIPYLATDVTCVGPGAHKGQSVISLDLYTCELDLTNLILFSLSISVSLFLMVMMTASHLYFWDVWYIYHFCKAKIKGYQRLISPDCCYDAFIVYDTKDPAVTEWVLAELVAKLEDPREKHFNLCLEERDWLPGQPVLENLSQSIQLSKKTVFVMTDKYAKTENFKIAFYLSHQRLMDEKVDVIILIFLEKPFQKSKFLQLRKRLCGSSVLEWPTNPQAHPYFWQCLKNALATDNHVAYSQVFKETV
Procedure: as §1, §2, §3

[1] = Cell toxicity (Celltiter-Glo) in HEK-Blue hTLR8 cells; conditions: human
Procedure: as §1, §2
Detection of cell activity: The calculation formula for cell activity % is as follows.
The cell activity % values were analyzed using GraphPad Prism software, and the compound dose-effect curves were fitted to calculate the CC50 values of the compounds.
Cell activity %=RLU compound/RLU DMSO Control*100%

Row | EC50 (hTLR8) | EC50 (hTLR7) | SMILES | CC50 at 24 h [1]
1 | 1.46 µM | > 100 µM | C=CCCN(CCC=C)Cc1cn(C)c(=O)cc1-c1cnc2c(N[C@@](C)(CO)CCCC)nc(N)nc2c1 [Example 3] | 
2 | 0.315 µM | > 100 µM | C=CCCN(C)Cc1cn(C)c(=O)cc1-c1cnc2c(N[C@@](C)(CO)CCCC)nc(N)nc2c1 [Example 7] | > 100 µM
3 | 0.019 µM | 50.8 µM | CCCC[C@](C)(CO)Nc1nc(N)nc2cc(-c3cc(=O)[nH]cc3CN(C)CCC3CC3)cnc12 [Example 12] | 
4 | 1.73 µM | 81.5 µM | C=CCCN(CCC=C)Cc1c[nH]c(=O)cc1-c1cnc2c(N[C@@](C)(CO)CCCC)nc(N)nc2c1 [Example 13] | 97.3 µM
5 | 0.288 µM | > 100 µM | CCCCN(CCCC)Cc1c[nH]c(=O)cc1-c1cnc2c(N[C@@](C)(CO)CCCC)nc(N)nc2c1 [Example 14] | > 100 µM
6 | 0.132 µM | > 100 µM | C=CCCN(CC)Cc1c[nH]c(=O)cc1-c1cnc2c(N[C@@](C)(CO)CCCC)nc(N)nc2c1 [Example 18] | > 100 µM
7 | 0.255 µM | > 100 µM | C=CCCN(Cc1c[nH]c(=O)cc1-c1cnc2c(N[C@@](C)(CO)CCCC)nc(N)nc2c1)C(C)C [Example 19] | > 100 µM
8 | 2.85 µM | > 100 µM | CCCC[C@](C)(CO)Nc1nc(N)nc2cc(-c3cc(=O)[nH]cc3CN(C)CCNC)cnc12 [Example 20] | > 100 µM
9 | 4.25 µM | > 100 µM | CC#CCN(C)Cc1c[nH]c(=O)cc1-c1cnc2c(N[C@@](C)(CO)CCCC)nc(N)nc2c1 [Example 27] | > 100 µM
10 | 0.209 µM | 56.7 µM | C=CCCN(CCC=C)Cc1c[nH]c(=O)cc1-c1ccc2c(N[C@@](C)(CO)CCCC)nc(N)nc2c1 [Example 31] | 
11 | 2.99 µM | > 100 µM | C=CCCN(C)C(=O)c1c[nH]c(=O)cc1-c1cnc2c(N[C@@](C)(CO)CCCC)nc(N)nc2c1 [Example 38, (R)-4-(2-Amino-4-((1-hydroxy-2-methylhexan-2-yl)amino)pyrido[3,2-d]pyrimidin-7-yl)-N-(but-3-en-1-yl)-N-methyl-6-oxo-1,6-dihydropyridine-3-carboxamide] | > 100 µM
12 | 0.68 µM |  | CCCCN(C)Cc1c[nH]c(=O)cc1-c1cnc2c(N[C@](C)(CCCC)COC)nc(N)nc2c1 [Example 53, (R)-4-(2-Amino-4-((1-methoxy-2-methylhexan-2-yl)amino)pyrido[3,2-d]pyrimidin-7-yl)-5-((butyl(methyl)amino)methyl)pyridin-2(1H)-one] | 
13 | 0.023 µM | 12 µM | CCCCN(C)Cc1c[nH]c(=O)cc1-c1cnc2c(N[C@@](C)(CO)CCCC)nc(N)nc2c1 [Example 69, 4-(2-Amino-4-((1-hydroxy-2-methylhexan-2-yl)amino)pyrido[3,2-d]pyrimidin-7-yl)-5-((butyl(methyl)amino)methyl)pyridin-2(1H)-one] | 

Continued, molecule first:

Row | SMILES | EC50 (hTLR8) | EC50 (hTLR7) | CC50 at 24 h [1]
14 | CCCC[C@](C)(CO)Nc1nc(N)nc2cc(-c3cc(=O)n(C)cc3CN(C)CCc3ccccc3)cnc12 [Example 1, (R)-4-(2-Amino-4-((1-hydroxy-2-methylhexan-2-yl)amino)pyrido[3,2-d]pyrimidin-7-yl)-1-methyl-5-((methyl(phenethyl)amino)methyl)pyridin-2(1H)-one] | 1.82 µM | 73 µM | 
15 | CCCC[C@](C)(CO)Nc1nc(N)nc2cc(-c3cc(=O)n(C)cc3CN(C)CCC3CC3)cnc12 [Example 2] | 0.1 µM | > 100 µM | 
16 | CCCCN(CCCC)Cc1cn(C)c(=O)cc1-c1cnc2c(N[C@@](C)(CO)CCCC)nc(N)nc2c1 [Example 4] | 1.07 µM | > 100 µM | 
17 | C#CCCN(C)Cc1cn(C)c(=O)cc1-c1cnc2c(N[C@@](C)(CO)CCCC)nc(N)nc2c1 [Example 6] | 3.9 µM | > 100 µM | 
18 | CCCC[C@](C)(CO)Nc1nc(N)nc2cc(-c3cc(=O)[nH]cc3CN(C)CCc3ccccc3)cnc12 [Example 11] | 1.65 µM |  | 
19 | CCCC[C@](C)(CO)Nc1nc(N)nc2cc(-c3cc(=O)[nH]cc3CN3CCNCC3)cnc12 [Example 15] |  |  | > 100 µM
20 | CCCC[C@](C)(CO)Nc1nc(N)nc2cc(-c3cc(=O)[nH]cc3CN3CCCCC3)cnc12 [Example 16] | 0.104 µM | 65.8 µM | 
21 | CCCC[C@](C)(CO)Nc1nc(N)nc2cc(-c3cc(=O)[nH]cc3CN3CCCCC3)ccc12 [Example 17] | 0.22 µM | > 100 µM | > 100 µM
22 | CCCC[C@](C)(CO)Nc1nc(N)nc2cc(-c3cc(=O)[nH]cc3CN3CCN(C)CC3)cnc12 [Example 22] | 0.98 µM | > 100 µM | > 100 µM
23 | CCCC[C@](C)(CO)Nc1nc(N)nc2cc(-c3cc(=O)[nH]cc3CN3CCN(C(C)(C)C)CC3)cnc12 [Example 23] | 0.291 µM | > 100 µM | > 100 µM
24 | CCCC[C@](C)(CO)Nc1nc(N)nc2cc(-c3cc(=O)[nH]cc3CN3CCOCC3)cnc12 [Example 24] | 0.239 µM | > 100 µM | > 100 µM
25 | CCCC[C@](C)(CO)Nc1nc(N)nc2cc(-c3cc(=O)[nH]cc3CN3CCSCC3)cnc12 [Example 25] | 0.13 µM | > 100 µM | > 100 µM
26 | CCCC[C@](C)(CO)Nc1nc(N)nc2cc(-c3cc(=O)[nH]cc3CN3CCC(F)(F)CC3)cnc12 [Example 26] | 0.845 µM | 54.6 µM | 
27 | CCCC[C@](C)(CO)Nc1nc(N)nc2cc(-c3cc(=O)[nH]cc3CN(C)CCc3ccccc3)ccc12 [Example 29, (R)-4-(2-Amino-4-((1-hydroxy-2-methylhexan-2-yl)amino)quinazolin-7-yl)-5-((methyl(phenethyl)amino)methyl)pyridin-2(1H)-one] | 0.267 µM | 23.2 µM | 
28 | CCCCN(CCCC)Cc1c[nH]c(=O)cc1-c1ccc2c(N[C@@](C)(CO)CCCC)nc(N)nc2c1 [Example 32] | 0.399 µM | 47.2 µM | 
29 | C=CCCN(C)Cc1cn(C2CCN(C)CC2)c(=O)cc1-c1cnc2c(N[C@@](C)(CO)CCCC)nc(N)nc2c1 [Example 37, (R)-4-(2-Amino-4-((1-hydroxy-2-methylhexan-2-yl)amino)pyrido[3,2-d]pyrimidin-7-yl)-5-((but-3-en-1-yl(methyl)amino)methyl)-1-(1-methylpiperidin-4-yl)pyridin-2(1H)-one] | 0.397 µM | > 100 µM | 
30 | CCCC[C@H](CO)Nc1nc(N)nc2cc(-c3cc(=O)[nH]cc3CN(C)CCCC)cnc12 [Example 43, (R)-4-(2-Amino-4-((1-hydroxyhexan-2-yl)amino)pyrido[3,2-d]pyrimidin-7-yl)-5-((butyl(methyl)amino)methyl)pyridin-2(1H)-one] |  |  | > 100 µM
